# Experimental data: article PMC12298351, “Novel 3,19-(N-Phenyl-3-(4-fluorophenyl)-pyrazole) Acetal of Andrographolide Promotes Cell Cycle Arrest and Apoptosis in MDA-MB-231 Breast Cancer Cells” (Pharmaceuticals, 2025)
# Tests used:
# [1] = test system: SF-295; settings: SF-295, CNS; for CC50: read-out: 50% lethal concentration (LC50)
# [2] = test system: KM12; settings: KM12, Colon
# [3] = test system: IGROV1; settings: IGROV1, Ovarian; for CC50: read-out: 50% lethal concentration (LC50)
# [4] = test system: NCI-H226; settings: for Total growth inhibition (TGI) / CC50: NCI-H226, Non-Small Cell Lung; for GI50: NCI-H226, Non-Small-Cell Lung; for CC50: read-out: 50% lethal concentration (LC50)
# [5] = test system: SW-620; settings: SW-620, Colon; for CC50: read-out: 50% lethal concentration (LC50)
# [6] = test system: SK-MEL-5; settings: SK-MEL-5, Melanoma; for CC50: read-out: 50% lethal concentration (LC50)
# [7] = test system: HL-60(TB); settings: for GI50 / Total growth inhibition (TGI): Leukemia; for CC50: read-out: 50% lethal concentration (LC50), Leukemia
# [8] = test system: CAKI-1; settings: CAKI-1, Renal; for CC50: read-out: 50% lethal concentration (LC50)
# [9] = test system: NCI-H460; settings: for Total growth inhibition (TGI) / CC50: NCI-H460, Non-Small Cell Lung; for GI50: NCI-H460, Non-Small-Cell Lung; for CC50: read-out: 50% lethal concentration (LC50)
# [10] = test system: SF-268; settings: SF-268, CNS; for CC50: read-out: 50% lethal concentration (LC50)
# [11] = test system: TK-10; type: cell-based; settings: TK-10, Renal
# [12] = test system: EKVX; settings: for Total growth inhibition (TGI): Non-Small Cell Lung; for GI50: Non-Small-Cell Lung; for CC50: read-out: 50% lethal concentration (LC50), Non-Small Cell Lung
# [13] = test system: 786-0; settings: 786-0, Renal; for CC50: read-out: 50% lethal concentration (LC50)
# [14] = test system: HCC-2998; settings: HCC-2998, Colon
# [15] = test system: HOP-92; settings: for Total growth inhibition (TGI) / CC50: HOP-92, Non-Small Cell Lung; for GI50: HOP-92, Non-Small-Cell Lung; for CC50: read-out: 50% lethal concentration (LC50)
# [16] = test system: BT-549; type: cell-based; settings: BT-549, Breast
# [17] = test system: UO-31; settings: UO-31, Renal; for CC50: read-out: 50% lethal concentration (LC50)
# [18] = test system: ACHN; settings: for GI50 / Total growth inhibition (TGI): Renal; for CC50: read-out: 50% lethal concentration (LC50), Renal
# [19] = test system: MDA-MB-231; settings: for GI50: MDA-MB-231, Breast; for Total growth inhibition (TGI) / CC50: MDA-MB-231/ATCC, Breast; for CC50: read-out: 50% lethal concentration (LC50)
# [20] = test system: RXF 393; settings: RXF 393, Renal; for CC50: read-out: 50% lethal concentration (LC50)
# [21] = test system: T-47D; settings: for GI50 / Total growth inhibition (TGI): Breast; for CC50: read-out: 50% lethal concentration (LC50), Breast
# [22] = test system: CCRF-CEM; settings: for CC50: read-out: 50% lethal concentration (LC50), Leukemia
# [23] = test system: SNB-75; settings: SNB-75, CNS; for CC50: read-out: 50% lethal concentration (LC50)
# [24] = test system: MCF7; settings: MCF7, Breast; for CC50: read-out: 50% lethal concentration (LC50)
# [25] = test system: SN12C; settings: for GI50 / Total growth inhibition (TGI): Renal; for CC50: read-out: 50% lethal concentration (LC50), Renal
# [26] = test system: SNB-19; type: cell-based; settings: SNB-19, CNS
# [27] = test system: MDA-MB-435; settings: MDA-MB-435, Melanoma; for CC50: read-out: 50% lethal concentration (LC50)
# [28] = test system: SK-MEL-2; settings: SK-MEL-2, Melanoma
# [29] = test system: A498; settings: A498, Renal; for CC50: read-out: 50% lethal concentration (LC50)
# [30] = test system: HS 578T; settings: for GI50 / Total growth inhibition (TGI): Breast; for CC50: read-out: 50% lethal concentration (LC50), Breast
# [31] = test system: HOP-62; settings: for Total growth inhibition (TGI) / CC50: HOP-62, Non-Small Cell Lung; for GI50: HOP-62, Non-Small-Cell Lung; for CC50: read-out: 50% lethal concentration (LC50)
# [32] = test system: SR; settings: for GI50 / Total growth inhibition (TGI): Leukemia; for CC50: read-out: 50% lethal concentration (LC50), Leukemia
smiles,measurement,setting,value
"C=C1CCC2C3(C)COC(c4cn(-c5ccccc5)nc4-c4ccc(F)cc4)OC3CCC2(C)C1CC=C1C(=O)OCC1O (stereo not drawn) [1f, 3,19-(N-Phenyl-3-(4-fluorophenyl)-pyrazole) Acetal of Andrographolide]",GI50,[1],1.55 µM
same,Total growth inhibition (TGI),[1],2.92 µM
same,CC50,[1],5.49 µM
same,GI50,[2],1.84 µM
same,Total growth inhibition (TGI),[2],3.59 µM
same,GI50,[3],1.84 µM
same,Total growth inhibition (TGI),[3],4.75 µM
same,CC50,[3],> 100 µM
same,Total growth inhibition (TGI),[4],2.94 µM
same,GI50,[4],1.51 µM
same,CC50,[4],5.75 µM
same,GI50,[5],4.49 µM
same,Total growth inhibition (TGI),[5],> 100 µM
same,CC50,[5],> 100 µM
same,GI50,[6],1.62 µM
same,Total growth inhibition (TGI),[6],2.98 µM
same,CC50,[6],5.47 µM
same,GI50,[7],0.64 µM
same,Total growth inhibition (TGI),[7],7.12 µM
same,CC50,[7],> 100 µM
same,GI50,[8],1.58 µM
same,Total growth inhibition (TGI),[8],3.17 µM
same,CC50,[8],6.34 µM
same,Total growth inhibition (TGI),[9],3.33 µM
same,GI50,[9],1.69 µM
same,CC50,[9],6.57 µM
same,GI50,[10],2.36 µM
same,Total growth inhibition (TGI),[10],5.63 µM
same,CC50,[10],25.7 µM
same,GI50,[11],1.27 µM
same,Total growth inhibition (TGI),[11],2.55 µM
same,Total growth inhibition (TGI),[12],4.72 µM
same,GI50,[12],2.06 µM
same,CC50,[12],> 100 µM
same,GI50,[13],1.6 µM
same,Total growth inhibition (TGI),[13],3.34 µM
same,CC50,[13],6.96 µM
same,GI50,[14],1.76 µM
same,Total growth inhibition (TGI),[14],3.21 µM
same,Total growth inhibition (TGI),[15],2.73 µM
same,GI50,[15],1.29 µM
same,CC50,[15],5.78 µM
same,GI50,[16],1.31 µM
same,Total growth inhibition (TGI),[16],3.18 µM
same,GI50,[17],1.6 µM
same,Total growth inhibition (TGI),[17],3.34 µM
same,CC50,[17],5.14 µM
same,GI50,[18],1.66 µM
same,Total growth inhibition (TGI),[18],3.11 µM
same,CC50,[18],5.82 µM
same,GI50,[19],1.68 µM
same,Total growth inhibition (TGI),[19],3.28 µM
same,CC50,[19],6.41 µM
same,GI50,[20],1.6 µM
same,Total growth inhibition (TGI),[20],3.04 µM
same,CC50,[20],5.78 µM
same,GI50,[21],1.19 µM
same,Total growth inhibition (TGI),[21],2.97 µM
same,CC50,[21],7.44 µM
same,GI50,[22]; Leukemia,0.4 µM
same,CC50,[22],> 100 µM
same,GI50,[23],1.66 µM
same,Total growth inhibition (TGI),[23],3.09 µM
same,CC50,[23],5.86 µM
same,GI50,[24],1.43 µM
same,Total growth inhibition (TGI),[24],4.13 µM
same,CC50,[24],63.1 µM
same,GI50,[25],1.55 µM
same,Total growth inhibition (TGI),[25],3.27 µM
same,CC50,[25],6.93 µM
same,GI50,[26],1.44 µM
same,Total growth inhibition (TGI),[26],2.91 µM
same,GI50,[27],1.68 µM
same,Total growth inhibition (TGI),[27],3.27 µM
same,CC50,[27],6.38 µM
same,GI50,[28],1.69 µM
same,Total growth inhibition (TGI),[28],3.1 µM
same,GI50,[29],3.31 µM
same,Total growth inhibition (TGI),[29],11.5 µM
same,CC50,[29],38.3 µM
same,GI50,[30],1.51 µM
same,Total growth inhibition (TGI),[30],2.94 µM
same,CC50,[30],5.72 µM
same,Total growth inhibition (TGI),[31],3.36 µM
same,GI50,[31],1.62 µM
same,CC50,[31],6.95 µM
same,GI50,[32],1.7 µM
same,Total growth inhibition (TGI),[32],7.33 µM
same,CC50,[32],> 100 µM
C=C1CCC2C3(C)COC(c4cn(-c5ccccc5)nc4-c4ccc(Cl)cc4)OC3CCC2(C)C1CC=C1C(=O)OCC1O (stereo not drawn) [1g],GI50,[1],1.5 µM
same,Total growth inhibition (TGI),[1],2.88 µM
same,CC50,[1],5.51 µM
same,GI50,[2],2.29 µM
same,Total growth inhibition (TGI),[2],4.92 µM
same,GI50,[3],4.29 µM
same,Total growth inhibition (TGI),[3],46.1 µM
same,CC50,[3],> 100 µM
same,Total growth inhibition (TGI),[4],3.05 µM
same,GI50,[4],1.55 µM
same,CC50,[4],5.99 µM
same,Total growth inhibition (TGI),[5],> 100 µM
same,CC50,[5],> 100 µM
same,GI50,[6],1.7 µM
same,Total growth inhibition (TGI),[6],3.11 µM
same,CC50,[6],5.69 µM
same,GI50,[7],2.67 µM
same,Total growth inhibition (TGI),[7],> 100 µM
same,CC50,[7],> 100 µM
same,GI50,[8],1.63 µM
same,Total growth inhibition (TGI),[8],3.28 µM
same,CC50,[8],6.59 µM
same,Total growth inhibition (TGI),[9],3.72 µM
same,GI50,[9],1.79 µM
same,CC50,[9],7.76 µM
same,GI50,[10],2.39 µM
same,Total growth inhibition (TGI),[10],6.32 µM
same,CC50,[10],> 100 µM
same,GI50,[11],1.33 µM
same,Total growth inhibition (TGI),[11],2.74 µM
same,Total growth inhibition (TGI),[12],5.28 µM
same,GI50,[12],2.24 µM
same,CC50,[12],> 100 µM
same,GI50,[13],1.99 µM
same,Total growth inhibition (TGI),[13],4.17 µM
same,CC50,[13],8.7 µM
same,GI50,[14],1.88 µM
same,Total growth inhibition (TGI),[14],3.39 µM
same,Total growth inhibition (TGI),[15],3.08 µM
same,GI50,[15],1.5 µM
same,CC50,[15],6.32 µM
same,GI50,[16],1.49 µM
same,Total growth inhibition (TGI),[16],3.37 µM
same,GI50,[17],1.99 µM
same,Total growth inhibition (TGI),[17],4.17 µM
same,CC50,[17],5.6 µM
same,GI50,[18],1.89 µM
same,Total growth inhibition (TGI),[18],3.95 µM
same,CC50,[18],8.23 µM
same,GI50,[19],1.68 µM
same,Total growth inhibition (TGI),[19],4.6 µM
same,CC50,[19],6.25 µM
same,GI50,[20],1.79 µM
same,Total growth inhibition (TGI),[20],3.37 µM
same,CC50,[20],6.33 µM
same,GI50,[21],1.31 µM
same,Total growth inhibition (TGI),[21],3.6 µM
same,CC50,[21],> 100 µM
same,GI50,[22]; Leukemia,0.92 µM
same,Total growth inhibition (TGI),[22]; Leukemia,> 100 µM
same,CC50,[22],> 100 µM
same,GI50,[23],1.69 µM
same,Total growth inhibition (TGI),[23],2.87 µM
same,CC50,[23],5.87 µM
same,GI50,[24],1.51 µM
same,Total growth inhibition (TGI),[24],> 100 µM
same,CC50,[24],42.8 µM
same,GI50,[25],1.67 µM
same,Total growth inhibition (TGI),[25],3.57 µM
same,CC50,[25],7.61 µM
same,GI50,[26],1.4 µM
same,GI50,[27],1.65 µM
same,Total growth inhibition (TGI),[27],3.28 µM
same,CC50,[27],6.51 µM
same,GI50,[28],1.77 µM
same,Total growth inhibition (TGI),[28],3.25 µM
same,GI50,[29],5.2 µM
same,Total growth inhibition (TGI),[29],19 µM
same,CC50,[29],53.7 µM
same,GI50,[30],1.75 µM
same,Total growth inhibition (TGI),[30],3.24 µM
same,CC50,[30],6.45 µM
same,Total growth inhibition (TGI),[31],4.95 µM
same,GI50,[31],2.36 µM
same,CC50,[31],> 100 µM
same,GI50,[32],2.53 µM
same,Total growth inhibition (TGI),[32],> 100 µM
same,CC50,[32],> 100 µM
